Reference: US20120045393A1 (priority 2009, published 2012)

Assays:
[1] = In vitro metabolic stability in mouse liver homogenate at 37° C.; type: in vitro ADME
Method: Livers from 10 female Tac:NCr:Foxn1^nu/nu mice were excised, rinsed with ice cold PBS (no Ca^++ or Mg^++) and weighed. The tissues were minced with scissors in Petri dishes on ice with Tris buffered saline (Pierce BupH™ Tris buffered saline packs, #28376; 25 mM Tris, 150 mM NaCl, pH 7.2). After mincing, the tissues were dounce homogenized, and the total volume adjusted with ice cold Tris buffer (4 mL for every gram of excised tissue). The homogenate was centrifuged at ˜4000×g for 10 min at 4° C. The supernatants were aliquoted into Eppendorf tubes on ice (200 and 100 μl volumes) and stored at −80° C. Kidney homogenates were similarly prepared. […] The mixture was centrifuged at 4° C. for 20 min at 20,000×g to precipitate the protein; 10 μL (˜7.6 μCi) of the supernatant was injected into the HPLC for the analysis. […] Peaks at these retention times were also observed in the in vivo plasma sample (FIG. 1). […] After 0 and 60 min, the sample was removed from the incubator, immediately cooled on ice and 2 μL of 10 mM EDTA and 0.2 mL of ice-cooled MeOH were added, mixing after each addition. The proteins in the sample were separated by centrifugation at 14,000 rpm for 20 min. The supernatant was harvested and, in the samples spiked with the ^177Lu-analog, the radioactivity was measured using a Capintec dose calibrator to determine recovery. The sample was then analyzed by HPLC. […] After 0 and 60 min, the sample was removed from the incubator, immediately cooled on ice and 2 μL of 10 mM EDTA and 0.24 mL of ice-cooled methanol was added, mixing after each addition. The proteins in the sample were separated by centrifugation at 14,000 rpm for 20 min. The supernatant was collected and analyzed by LC/MS as described earlier herein.

[2] = test system: PC-3 (human prostate cancer) cells; assay: Internalization/efflux studies in PC-3 cells; type: cell-based
Method: Internalization/Efflux Studies: The internalization and efflux studies were carried out following the general procedure. Basically, ^177Lu-LHRH II or ^125I-LHRH II ([^125I-Tyr^8]BRU-2477) (75 uL, 3.0 μCi/mL) was added to the EFO-27 or PC-3 cells. The cells were incubated for 40 min at 37° C. The unbound radioactivity was washed off (4×). Following addition of fresh medium, the cells were further incubated for up to 2 h. At various time points (15, 30, 60 & 120 min) the distribution of radioactivity (membrane-bound, internalized, and efflux) was determined
To determine whether prostate cancer cells (PC-3) behave differently from EFO-27 cells, internalization and efflux studies were carried out with ^177Lu-BRU-2813 using both cell lines.

[3] = test system: EFO-27 human ovarian cancer cells (LHRH binding sites); assay: Direct binding/uptake of 177Lu-labeled LHRH-II analogs to EFO-27 cells; details: 177Lu-labeled, 4° C., 1 h, single concentration
Method: All reagents and chemicals were obtained from Sigma unless otherwise specified. LHRH analogs and ^177Lu-LHRH-II analogs were prepared by in-house chemists, as described elsewhere in the application. ^177Lu-LHRH-II analogs were not HPLC purified, as they had been prepared using formulation conditions that yielded high RCP without the need for purification. […] The HPLC-purified material was taken in a stabilizing buffer containing 5% lactose, 0.1% L-cysteine hydrochloride and 800 KIU/mL aprotinin and received as a lyophilized product and stored at −70° C. This was reconstituted in distilled water, aliquoted and stored at −70° C. The radioactivity was determined using Microplate Scintillation counter (Wallac Microbeta Trilux).
For the binding assay, EFO-27 cells were seeded onto 96-well clear flat-bottom tissue-culture-treated plates at 15,000/well density in the growth medium and used for assay on day 2 post-seeding. Cells were routinely checked for confluence and contamination and cell count was done occasionally to ensure consistency in cell numbers.
Direct Binding: Direct binding studies were carried out by incubating appropriate ^177Lu-labeled compounds with EFO-27 cells at 4° C. for 1 h followed by washing off the unbound radioactivity. Non-specific binding was determined by incubating the ^177Lu-LHRH-II analogs in the presence of a large excess (30 uM) of cold (unlabeled) LHRH-II analogs. A 96-well plate format was used.

[4] = in vitro; type: in vitro ADME, mouse
Method: Livers from 10 female Tac:NCr:Foxn1^nu/nu mice were excised, rinsed with ice cold PBS (no Ca^++ or Mg^++) and weighed. The tissues were minced with scissors in Petri dishes on ice with Tris buffered saline (Pierce BupH™ Tris buffered saline packs, #28376; 25 mM Tris, 150 mM NaCl, pH 7.2). After mincing, the tissues were dounce homogenized, and the total volume adjusted with ice cold Tris buffer (4 mL for every gram of excised tissue). The homogenate was centrifuged at ˜4000×g for 10 min at 4° C. The supernatants were aliquoted into Eppendorf tubes on ice (200 and 100 μl volumes) and stored at −80° C. Kidney homogenates were similarly prepared. […] The mixture was centrifuged at 4° C. for 20 min at 20,000×g to precipitate the protein; 10 μL (˜7.6 μCi) of the supernatant was injected into the HPLC for the analysis. […] Peaks at these retention times were also observed in the in vivo plasma sample (FIG. 1). […] The final concentration for the Lu-BRU-2813 in the homogenate sample solution was ˜0.4 mg/mL. After 60 min incubation, the sample was immediately cooled on ice, and then 0.48 mL of ice-cooled methanol was added. The sample was centrifuged at 4° C. for 20 min at 20,000×g to precipitate the protein. The supernatant was collected, concentrated using a speed vacuum to remove organic solvents, and then analyzed by LC/MS.

[5] = mouse, in vivo, 10 min
Method: In addition, at both 2 and 10 min post injection, blood samples from two mice were collected. The collected blood samples at each time point were pooled and treated with two times their volume with ice-cooled methanol, and then the mixture was centrifuged at 4° C. for 20 min at 20,000×g to precipitate proteins. The supernatant was collected and the organic solvent in the solution was removed by speed-vacuum for 60 min. The concentrated supernatant was assayed by HPLC.

[6] = test system: EFO-27 cells; assay: Internalization/efflux studies in EFO-27 cells; type: cell-based, human
In short: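 EFO-27 cells incubated 40 min at 37° C with ^177Lu-LHRH II or ^125I-LHRH II ([^125I-Tyr^8]BRU-2477) at 3.0 μCi/mL, washed, then kept in fresh medium. At 0, 15, 30, 60 and 120 min radioactivity split into membrane-bound, internalized and efflux fractions.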

[7] = female, Tac:NCr:Foxn1nu/nu, mouse, tissue homogenate, pH 7.2

N=C(N)NCCC[C@H](NC(=O)[C@@H](Cc1ccc2ccccc2c1)NC(=O)CN1CCN(CC(=O)O)CCN(CC(=O)O)CCN(CC(=O)O)CC1)C(=O)N[C@@H](Cc1c[nH]c2ccccc12)C(=O)N[C@@H](CO)C(=O)N[C@@H](Cc1cnc[nH]1)C(=O)N[C@H](CCCNC(=N)N)C(=O)N[C@@H](Cc1c[nH]c2ccccc12)C(=O)N[C@@H](Cc1ccc(C(=O)c2ccccc2)cc1)C(=O)N1CCC[C@H]1C(=O)NNC(N)=O [177Lu-BRU-2813, Lu-DOTA-Dnal2-Arg-Trp-Ser-His-Darg-Trp-Bpa4-Pro-azaGly-NH2, metal not drawn]
metabolism in liver homogenate [1]: Extensive metabolism was seen
remaining at 10 min, 2.3 mCi/mL [1, 7]: 18.3%
remaining at 1 h, 0.3 mg/mL [1, 7]: 12.4 ± 8.7%
initial internalization ([2]; % of cell-associated counts): 25%
cell surface activity ([2]; % of the total bound): 60-65%
efflux ([2]; in 1 h): 75-80%
direct binding / uptake [3]: 19%
direct binding / uptake ([3]; listed as Lu-BRU-2813): 18.8%
metabolism in kidney homogenate [4]: Extensive metabolism was seen
remaining at 10 min, 2.3 mCi/mL ([4]; female, Tac:NCr:Foxn1nu/nu, mouse, other tissue homogenate, pH 7.2): 2.4%
radioactivity remaining in the plasma still in parent form [5]: 66%
cell surface (membrane) binding ([6]; % of the total bound): 60-65%
initial internalization ([6]; % of total bound (cell-associated) radioactivity, T=0): 27%
efflux ([6]; in 1 h): 75-80%
